Data reported in ChEMBL document CHEMBL1137264, “Carbonic anhydrase inhibitors. Inhibition of the cytosolic human isozymes I and II, and the transmembrane, tumor-associated isozymes IX and XII with substituted aromatic sulfonamides activatable in hypoxic tumors” (Bioorg Med Chem Lett, 2006).
pKi: −log10 of the molar value. Values joined by “and” are separate entries in the source; they are usually repeats but may differ in a detail not shown here. Equal values may be shown once.

Tests used:
[1] = molecular target: Carbonic anhydrase 9 (Homo sapiens, UniProt Q16790)
Description: Inhibition of human cloned CA9 catalytic domain by CO2 hydration assay

[2] = molecular target: Carbonic anhydrase 1 (Homo sapiens, UniProt P00915)
Description: Inhibition of human cloned CA1 by CO2 hydration assay

[3] = molecular target: Carbonic anhydrase 2 (Homo sapiens, UniProt P00918)
Description: Inhibition of human cloned CA2 by CO2 hydration assay

[4] = molecular target: Carbonic anhydrase 12 (Homo sapiens, UniProt O43570)
Carbonic anhydrase 12, sequence (O43570 whole entry): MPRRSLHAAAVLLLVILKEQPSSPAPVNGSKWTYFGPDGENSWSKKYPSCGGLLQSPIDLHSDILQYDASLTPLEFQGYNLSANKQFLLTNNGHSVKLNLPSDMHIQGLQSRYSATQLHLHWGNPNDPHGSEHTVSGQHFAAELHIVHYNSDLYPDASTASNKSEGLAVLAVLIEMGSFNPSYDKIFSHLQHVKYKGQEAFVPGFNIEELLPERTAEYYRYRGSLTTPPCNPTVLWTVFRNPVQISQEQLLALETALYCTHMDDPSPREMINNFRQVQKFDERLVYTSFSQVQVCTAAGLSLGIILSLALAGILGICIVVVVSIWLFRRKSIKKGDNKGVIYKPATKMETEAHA
Description: Inhibition of human cloned CA12 catalytic domain by CO2 hydration assay

Carbonic anhydrase 1, sequence (P00915 whole entry): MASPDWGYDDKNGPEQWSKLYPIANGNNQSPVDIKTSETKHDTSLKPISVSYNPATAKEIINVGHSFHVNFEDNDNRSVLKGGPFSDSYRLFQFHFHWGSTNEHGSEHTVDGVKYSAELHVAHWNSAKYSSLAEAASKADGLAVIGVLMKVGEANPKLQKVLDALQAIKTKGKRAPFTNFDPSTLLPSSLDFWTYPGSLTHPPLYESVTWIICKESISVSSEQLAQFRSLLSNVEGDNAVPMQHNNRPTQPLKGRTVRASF

| Compound | pKi [1] | pKi [2] | pKi [3] | pKi [4] |
| --- | --- | --- | --- | --- |
| COC(=O)CS(=O)(=O)c1cc(Cl)c(C)cc1S(N)(=O)=O | 5.74 | 5.29 | 8.02 | 5.87 |
| Cc1cc(S(N)(=O)=O)c(S(=O)(=O)C(C)C(=O)NN)cc1Cl (stereo unspecified) | 5.47 | 4.85 | 6.27 | 5.62 |
| NS(=O)(=O)c1cc(C(=O)NCc2ccccc2)c(Cl)cc1S | 7.39 | 4.71 | 7.70 | 7.45 |
| Cc1cc(S(N)(=O)=O)c(S(=O)(=O)CC(=O)O)cc1Cl | 5.26 | 4.94 | 6.26 | 5.62 |
| NS(=O)(=O)c1cc2c(cc1SSc1cc3c(cc1S(N)(=O)=O)S(=O)(=O)NCN3)NCNS2(=O)=O | 6.11 | 3.51 | < 5.00 | 5.71 |
| CSc1cc2c(cc1S(N)(=O)=O)S(=O)(=O)NCN2 | 6.86 | 4.96 | 5.42 | 6.97 |
| CCOC(=O)c1cc(S(N)(=O)=O)c(S)cc1Cl | 7.25 | 5.19 | 7.73 | 7.28 |
| CC/C(=N/Nc1ccc([N+](=O)[O-])cc1)Sc1cc(Cl)c(C)cc1S(N)(=O)=O | < 5.00 | 3.66 | < 5.00 | < 5.00 |
| CCOC(=O)c1cc(S(N)(=O)=O)c(SSc2cc(Cl)c(C(=O)OCC)cc2S(N)(=O)=O)cc1Cl | < 5.00 | 5.11 | 5.25 | < 5.00 |
| Cc1cc(S(N)(=O)=O)c(S/C(=N\Nc2ccc([N+](=O)[O-])cc2)c2ccccc2)cc1Cl | < 5.00 | 3.42 | < 5.00 | < 5.00 |
| CC(C)CSc1cc2c(cc1S(N)(=O)=O)S(=O)(=O)NCN2 | < 5.00 | 3.41 | 5.57 | 6.00 |

The next lines start with the values.

| pKi [1] | pKi [2] | pKi [3] | pKi [4] | Compound |
| --- | --- | --- | --- | --- |
| 6.12 | 4.66 | 5.34 | 6.72 | NS(=O)(=O)c1cc(C(=O)N2CCCC2)c(Cl)cc1SSc1cc(Cl)c(C(=O)N2CCCC2)cc1S(N)(=O)=O |
| < 5.00 | 3.95 | < 5.00 | < 5.00 | Cc1cc(S(N)(=O)=O)c(S/C(=N\NS(=O)(=O)c2ccccc2)c2ccccc2)cc1Cl |
| < 5.00 | 4.09 | 5.21 | < 5.00 | NS(=O)(=O)c1cc(C(=O)NCc2ccccc2)c(Cl)cc1SSc1cc(Cl)c(C(=O)NCc2ccccc2)cc1S(N)(=O)=O |
| 6.95 and 6.94 | 5.12 and 5.14 | 8.07 and 8.06 | 6.93 | NS(=O)(=O)c1cc2c(cc1S)NCNS2(=O)=O |
| 5.79 | 5.24 | 6.61 | 5.96 | COC(=O)C(C)S(=O)(=O)c1cc(Cl)c(C)cc1S(N)(=O)=O (stereo unspecified) |
| 5.30 | 4.56 | 6.09 | 5.52 | Cc1cc(S(N)(=O)=O)c(S(=O)(=O)C(C)C(=O)O)cc1Cl (stereo unspecified) |
| 7.84 | 5.59 | 7.71 | 7.70 | NS(=O)(=O)c1cc(C(=O)N2CCCC2)c(Cl)cc1S |
| 5.84 | 5.11 | 8.04 | 5.86 | Cc1cc(S(N)(=O)=O)c(S(=O)(=O)CC(=O)NN)cc1Cl |
